Assay results from paper PMC6249675 (Structure (London, England : 1993), 2018).

Experiments:
Rac1 [1] = target: T1, Rac1 (Homo sapiens, UniProt P63000); assay: strong anion exchange chromatography of co-purified nucleotide; format: binding; settings: co-purified from E. coli
Rnd3 = target: T2, Rnd3 (Homo sapiens, UniProt P61587); assay: as above; format: binding; settings: co-purified from E. coli; not hydrolysed
T2 sequence (P61587 19-200): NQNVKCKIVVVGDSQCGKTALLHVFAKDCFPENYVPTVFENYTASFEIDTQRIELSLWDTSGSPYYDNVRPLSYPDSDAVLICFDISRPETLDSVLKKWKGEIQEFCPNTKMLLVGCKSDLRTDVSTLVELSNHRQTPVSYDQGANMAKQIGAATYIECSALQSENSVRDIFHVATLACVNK

Rac1 [2] = target: T1, Rac1; assay: GTP hydrolysis followed by strong anion exchange chromatography; format: biochemical; settings: 5 mM GTP, 5 mM MgCl2, room temperature, 24 h

Structure (SMILES) | strong anion exchange chromatography of co-purified nucleotide (Rac1 [1]) | strong anion exchange chromatography of co-purified nucleotide (Rnd3) | GTP hydrolysis followed by strong anion exchange chromatography (Rac1 [2])
Nc1nc2c(ncn2[C@@H]2O[C@H](COP(=O)(O)OP(=O)(O)O)[C@@H](O)[C@H]2O)c(=O)[nH]1 [GDP] | wild-type Rac1 which, like other active GTPases, is bound predominantly to GDP |  | 
Nc1nc2c(ncn2[C@@H]2O[C@H](COP(=O)(O)OP(=O)(O)OP(=O)(O)O)[C@@H](O)[C@H]2O)c(=O)[nH]1 [GTP] |  | N-GTPase is similar to the pseudoGTPase Rnd3, which binds only GTP (Fig. 4d) | Rac1 (preloaded with GTP) exhibits complete hydrolysis of GTP to GDP in identical conditions
